Data from patent US12421254B2, “KRAS modulators and uses thereof” (Quanta Therapeutics, Inc., priority 2023, dated 2025).
Like-named read-outs stand apart in the source and are kept apart here.

What was measured:
[1] = molecular target: GST-tagged KRAS-G12V (2-169) (Homo sapiens, UniProt P01116, G12V); assay: Nucleotide exchange assay (NEA), SOS-mediated, HTRF, KRAS G12V; assay type: biochemical; conditions: Table 4; IC50 extracted at 90 min; 80 nM SOS
Source text: (§1) This activity is tightly regulated by GTPase activating proteins (GAPs) and guanine nucleotide exchange factors (GEFs). GEFs, such as SOS1/2, activate Ras proteins by exchanging GDP for GTP, thus returning Ras to its active conformation (Simanshu, Nissley, & McCormick, 2017). […] Homogenous time resolved fluorescence (HTRF) was used to detect SOS-mediated binding of a fluorescent GTP analog, GTP-DY-647P1 (Jena Biosciences NU-820-647P1) to GST-tagged KRAS-G12D (2-169) or to GST-tagged KRAS-G12V (2-169, Reaction Biology, MSC-11-540).
(§2) GST-tagged KRAS-G12D (2-169) and anti-GST MAb Tb Cryptate Gold (CisBio 61GSTTLB) were diluted into assay buffer (20 mM HEPES, pH 7.3, 150 mM NaCl, 5 mM MgCl2, 0.05% BSA 0.0025% NP40, 1 mM DTT) to prepare a 2.5× donor solution. 5× compound was added to the protein mixture and incubated for 1 h at RT. 2.5× acceptor solution containing SOS1cat (564-1049, Reaction Biology MSC-11-502) and GTP-DY-647P1 were then added to the donor KRAS mixture such that the final concentration of the reaction contained 0.25 nM GST-tagged KRAS-G12D (2-169), 20 nM SOScat, and 150 nM GTP-DY-647P1. The reaction was monitored using at RT with the Envision multimode plate reader (Ex/Em 337/665, […]) up to 90 minutes at 5 minute intervals. To monitor KRAS-G12V SOS-mediated nucleotide exchange, 80 nM SOS was added to reaction instead of 20 nM. All other components were the same as previously described. Data was blanked to reactions without SOS1 and % inhibition was calculated such that DMSO only =0% and blank=100%. Curve fitting was done using a 4 parameter fit. Reported IC50 values were extracted at 30 min and 90 min for the KRAS-G12D and KRAS-G12V assays, respectively.

[2] = molecular target: GST-tagged KRAS-G12D (2-169) (Homo sapiens, UniProt P01116, G12D); assay: Nucleotide exchange assay (NEA), SOS-mediated, HTRF, KRAS G12D; assay type: biochemical; conditions: IC50 extracted at 30 min, 20 nM SOScat
Source text: as §1, §2
NEA KRAS G12D IC50 (uM) values of selected compounds are depicted in Table 2 with compounds having a value <0.01 uM as ++++; ≥0.01 uM to 0.1 uM as +++; ≥0.1 uM to 1 uM as ++; ≥1 uM to 20 uM as +; and ≥20 uM as NA.

[3] = Table 4, read-out: NEA G12D IC50
[4] = Table 2, read-out: NEA-G12D (uM) IC50

GST-tagged KRAS-G12V (2-169), sequence (P01116 2-169 isoform P01116-2 G12V): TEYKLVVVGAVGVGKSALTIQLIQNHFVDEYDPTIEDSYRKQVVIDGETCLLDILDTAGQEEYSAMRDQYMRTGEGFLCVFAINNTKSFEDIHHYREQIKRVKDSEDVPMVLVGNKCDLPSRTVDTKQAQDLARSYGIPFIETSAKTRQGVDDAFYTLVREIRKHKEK
GST-tagged KRAS-G12D (2-169), sequence (P01116 2-169 isoform P01116-2 G12D): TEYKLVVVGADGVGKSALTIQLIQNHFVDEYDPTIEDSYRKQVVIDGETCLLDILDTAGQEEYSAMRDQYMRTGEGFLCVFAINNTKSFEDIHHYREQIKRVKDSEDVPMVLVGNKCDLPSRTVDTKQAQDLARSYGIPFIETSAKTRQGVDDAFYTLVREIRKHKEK

SMILES | IC50 [1] | IC50 [2, 3] | IC50 [2, 4]
N#Cc1c(N)sc2c1C1(CN(c3nc(OC[C@@]45CCCN4C[C@H](F)C5)nc(N4C5CCC4COC5)n3)C1)SC2 (racemic) [Compound 274, 2-amino-1′-[4-(3-oxa-8-azabicyclo[3.2.1]octan-8-yl)-6-[[rac-(2R,8S)-2-fluoro-1,2,3,5,6,7-hexahydropyrrolizin-8-yl]methoxy]-1,3,5-triazin-2-yl]spiro[6H-thieno[3,4-b]thiophene-4,3′-azetidine]-3-carbonitrile] | 0.01 to 0.1 µM | 0.1 to 1 µM | –
CC(c1nccnc1N)N(C)c1nc(OC[C@@]23CCCN2C[C@H](F)C3)nc(N2CC3(CCc4sc(N)c(C#N)c43)C2)n1 (single isomer, unassigned) [Compound 116B, 2-amino-1′-[4-[[(1*)-1-(3-aminopyrazin-2-yl)ethyl]-methyl-amino]-6-[[(2R,8S)-2-fluoro-1,2,3,5,6,7-hexahydropyrrolizin-8-yl]methoxy]-1,3,5-triazin-2-yl]spiro[5,6-dihydrocyclopenta[b]thiophene-4,3′-azetidine]-3-carbonitrile] | 0.01 to 0.1 µM | 0.1 to 1 µM | –
C[C@H](c1cccnc1N)N(C)c1nc(OC[C@@]23CCCN2C[C@H](F)C3)nc(N2CCC3(CCCc4sc(N)c(C#N)c43)C2=O)n1 (single isomer, unassigned) [Compound 175A, (*)-2-amino-1′-(4-(((R)-1-(2-aminopyridin-3-yl)ethyl)(methyl)amino)-6-(((2R,7aS)-2-fluorotetrahydro-1H-pyrrolizin-7a(5H)-yl)methoxy)-1,3,5-triazin-2-yl)-2′-oxo-6,7-dihydro-5H-spiro[benzo[b]thiophene-4,3′-pyrrolidine]-3-carbonitrile] | < 0.01 µM | 0.01 to 0.1 µM | –
C[C@H](c1cccnc1N)N(C)c1nc(OC[C@@]23CCCN2C[C@H](F)C3)nc(N2CCC3(CCCc4sc(N)c(C#N)c43)C2=O)n1 (single isomer, unassigned) [Compound 175B, (*)-2-amino-1′-(4-(((R)-1-(2-aminopyridin-3-yl)ethyl)(methyl)amino)-6-(((2R,7aS)-2-fluorotetrahydro-1H-pyrrolizin-7a(5H)-yl)methoxy)-1,3,5-triazin-2-yl)-2′-oxo-6,7-dihydro-5H-spiro[benzo[b]thiophene-4,3′-pyrrolidine]-3-carbonitrile] | < 0.01 µM | 0.1 to 1 µM | –
CC(c1nsnc1N)N(C)c1nc(OC[C@@]23CCCN2C[C@H](F)C3)nc(N2CC3(C2)SCc2sc(N)c(C#N)c23)n1 (single isomer, unassigned) [Compound 184B, 2-amino-1′-[4-[[(1*)-1-(4-amino-1,2,5-thiadiazol-3-yl)ethyl]-methyl-amino]-6-[[(2R,8S)-2-fluoro-1,2,3,5,6,7-hexahydropyrrolizin-8-yl]methoxy]-1,3,5-triazin-2-yl]spiro[6H-thieno[2,3-c]thiophene-4,3′-azetidine]-3-carbonitrile] | 0.01 to 0.1 µM | 0.1 to 1 µM | –
C[C@@]1(O)CCCN(c2nc(OC[C@@]34CCCN3C[C@H](F)C4)nc(N3CCC4(CCc5sc(N)c(C#N)c54)C3)n2)C1 (stereo partly drawn) [Compound 11, 2-amino-1′-[4-[[(2R,8S)-2-fluoro-1,2,3,5,6,7-hexahydropyrrolizin-8-yl]methoxy]-6-[(3R)-3-hydroxy-3-methyl-1-piperidyl]-1,3,5-triazin-2-yl]spiro[5,6-dihydrocyclopenta[b]thiophene-4,3′-pyrrolidine]-3-carbonitrile] | 0.1 to 1 µM | 0.1 to 1 µM | 0.1 to 1 µM
CN(CC1(C#N)CC1)c1nc(OC[C@@]23CCCN2C[C@H](F)C3)nc(N2CCC3(CCc4sc(N)c(C#N)c43)C2)n1 (stereo partly drawn) [Compound 14, 2-amino-1′-[4-[(1-cyanocyclopropyl)methyl-methyl-amino]-6-[[(2R,8S)-2-fluoro-1,2,3,5,6,7-hexahydropyrrolizin-8-yl]methoxy]-1,3,5-triazin-2-yl]spiro[5,6-dihydrocyclopenta[b]thiophene-4,3′-pyrrolidine]-3-carbonitrile] | 1 to 20 µM | 1 to 20 µM | 1 to 20 µM
N#Cc1c(N)sc2c1C1(CC2)CN(c2nc(OC[C@@]34CCCN3C[C@H](F)C4)nc(N3CCC[C@@H](O)C3)n2)C1 [Compound 23, 2-amino-1′-[4-[[(2R,8S)-2-fluoro-1,2,3,5,6,7-hexahydropyrrolizin-8-yl]methoxy]-6-[(3R)-3-hydroxy-1-piperidyl]-1,3,5-triazin-2-yl]spiro[5,6-dihydrocyclopenta[b]thiophene-4,3′-azetidine]-3-carbonitrile] | 0.1 to 1 µM | 0.1 to 1 µM | –
CN(c1nc(OC[C@@]23CCCN2C[C@H](F)C3)nc(N2CC3(CCc4sc(N)c(C#N)c43)C2)n1)C1CCOC1 (stereo partly drawn) [Compound 36, 2-amino-1′-[4-[[(2R,8S)-2-fluoro-1,2,3,5,6,7-hexahydropyrrolizin-8-yl]methoxy]-6-[methyl(tetrahydrofuran-3-yl)amino]-1,3,5-triazin-2-yl]spiro[5,6-dihydrocyclopenta[b]thiophene-4,3′-azetidine]-3-carbonitrile] | 0.1 to 1 µM | 0.1 to 1 µM | –
N#Cc1c(N)sc2c1C1(CC2)CN(c2nc(OC[C@@]34CCCN3C[C@H](F)C4)nc(N3CCC4CC4(CO)C3)n2)C1 (stereo partly drawn) [Compound 41, 2-amino-1′-[4-[[(2R,8S)-2-fluoro-1,2,3,5,6,7-hexahydropyrrolizin-8-yl]methoxy]-6-[1-(hydroxymethyl)-3-azabicyclo[4.1.0]heptan-3-yl]-1,3,5-triazin-2-yl]spiro[5,6-dihydrocyclopenta[b]thiophene-4,3′-azetidine]-3-carbonitrile] | 0.1 to 1 µM | 1 to 20 µM | –
N#CCC12CC1CN(c1nc(OC[C@@]34CCCN3C[C@H](F)C4)nc(N3CC4(CCc5sc(N)c(C#N)c54)C3)n1)C2 (stereo partly drawn) [Compound 42, 2-amino-1′-[4-[1-(cyanomethyl)-3-azabicyclo[3.1.0]hexan-3-yl]-6-[[(2R,8S)-2-fluoro-1,2,3,5,6,7-hexahydropyrrolizin-8-yl]methoxy]-1,3,5-triazin-2-yl]spiro[5,6-dihydrocyclopenta[b]thiophene-4,3′-azetidine]-3-carbonitrile] | 0.1 to 1 µM | 1 to 20 µM | –
C[C@]1(O)C[C@@H](O)CN(c2nc(OC[C@@]34CCCN3C[C@H](F)C4)nc(N3CC4(CCc5sc(N)c(C#N)c54)C3)n2)C1 [Compound 46, 2-amino-1′-[4-[(3S,5R)-3,5-dihydroxy-3-methyl-1-piperidyl]-6-[[(2R,8S)-2-fluoro-1,2,3,5,6,7-hexahydropyrrolizin-8-yl]methoxy]-1,3,5-triazin-2-yl]spiro[5,6-dihydrocyclopenta[b]thiophene-4,3′-azetidine]-3-carbonitrile] | 0.01 to 0.1 µM | 0.1 to 1 µM | –
N#Cc1c(N)sc2c1C1(CCC2)CN(c2nc(OCC3(C#N)CC3)nc(OC[C@@]34CCCN3C[C@H](F)C4)n2)C1 [Compound 54, 2-amino-1′-[4-[(1-cyanocyclopropyl)methoxy]-6-[[(2R,8S)-2-fluoro-1,2,3,5,6,7-hexahydropyrrolizin-8-yl]methoxy]-1,3,5-triazin-2-yl]spiro[6,7-dihydro-5H-benzothiophene-4,3′-azetidine]-3-carbonitrile] | 0.01 to 0.1 µM | 0.1 to 1 µM | –
C[C@@]1(O)CCCN(c2nc(OC[C@@]34CCCN3C[C@H](F)C4)nc(N3CCC4(CCCc5sc(N)c(C#N)c54)C3)n2)C1 (stereo partly drawn) [Compound 60, 2-amino-1′-[4-[[(2R,8S)-2-fluoro-1,2,3,5,6,7-hexahydropyrrolizin-8-yl]methoxy]-6-[(3R)-3-hydroxy-3-methyl-1-piperidyl]-1,3,5-triazin-2-yl]spiro[6,7-dihydro-5H-benzothiophene-4,3′-pyrrolidine]-3-carbonitrile] | 1 to 20 µM | 1 to 20 µM | –
C[C@@]1(O)CCCN(c2nc(OCC3(CN4CCOCC4)CC3)nc(N3CCC4(CCCc5sc(N)c(C#N)c54)C3)n2)C1 (stereo partly drawn) [Compound 64, 2-amino-1′-[4-[(3R)-3-hydroxy-3-methyl-1-piperidyl]-6-[[1-(morpholinomethyl)cyclopropyl]methoxy]-1,3,5-triazin-2-yl]spiro[6,7-dihydro-5H-benzothiophene-4,3′-pyrrolidine]-3-carbonitrile] | 1 to 20 µM | 1 to 20 µM | –
